Source: patent publication US20100015603A1, “Chimeric proteins for measuring atp concentrations in pericellular space and related screening method” (priority 2005, published 2010)

Assays:
Format in all cases: cell-based
pmeLUC = molecular target: T1, pmeLUC (Photinus pyralis, UniProt P08659, N119G/N50D); assay: Response of HEK293-pmeLUC cells to extracellular nucleotides (affinity and selectivity of the pmeLUC probe, luminescence); settings: for sensitivity of pmeLUC to other nucleotides: HEK293-pmeLUC cells, FIG. 2A
T1 construct: expressed in transfected cells
T1 sequence (P08659 with tags, fused parts or gaps N50D/N119G): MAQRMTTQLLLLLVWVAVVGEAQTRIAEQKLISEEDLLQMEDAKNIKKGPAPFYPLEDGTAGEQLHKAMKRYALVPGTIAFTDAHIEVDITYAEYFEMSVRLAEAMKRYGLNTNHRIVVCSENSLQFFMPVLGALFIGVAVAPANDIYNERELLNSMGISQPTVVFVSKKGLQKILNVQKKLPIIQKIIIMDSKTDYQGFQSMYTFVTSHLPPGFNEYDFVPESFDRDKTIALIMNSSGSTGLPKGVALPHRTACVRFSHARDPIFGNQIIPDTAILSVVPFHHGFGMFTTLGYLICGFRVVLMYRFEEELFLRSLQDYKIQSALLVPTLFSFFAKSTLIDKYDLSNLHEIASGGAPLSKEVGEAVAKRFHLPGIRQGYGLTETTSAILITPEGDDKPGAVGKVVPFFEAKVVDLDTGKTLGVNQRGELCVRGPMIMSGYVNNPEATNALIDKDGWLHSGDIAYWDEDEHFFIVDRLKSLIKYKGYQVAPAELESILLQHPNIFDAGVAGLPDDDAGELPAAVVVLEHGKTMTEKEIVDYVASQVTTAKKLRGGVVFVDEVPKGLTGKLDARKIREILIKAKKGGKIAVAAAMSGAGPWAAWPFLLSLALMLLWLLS
Description: (§1) ATP was measured in the custom-made luminometer described by Rizzuto and co-workers (Brini et al., 1999; Jouaville et al., 1999). For experiments, cells were plated onto 13 mm coverslips and were placed in a 37° C. thermostatted chamber (diameter 15 mm, height 2 mm) and perfused with a saline solution supplemented with luciferin at a concentration of 5 μM. The chamber was held in a photomultiplier kept in a dark refrigerated (4° C.) box. Light emission was detected by a Thorn EMI photon counting board installed in an IBM-compatible computer. The board allowed storing of the data in the computer memory for further analysis. During the experiments the thermostatted chamber was continuously perfused with buffer by means of a Gilson peristaltic pump. Alternatively, ATP was measured in the supernatants using soluble luciferase in a Firezyme luminometer as previously described (Baricordi et al., 1999; Solini et al, 2004; Zanovello et al., 1990).
Affinity of pmeLUC for ATP is rather low, with a threshold of about 10 μM, however, subsequent ATP additions elicit further increases in light emission that allow building a calibration curve (FIG. 2B). Importantly, pmeLUC is insensitive to all other nucleotides tested (ADP, UTP, UDP and GTP) (FIG. 2A).

HEK293-pmeLUC cells = settings: HEK293-pmeLUC cells, not shown
Description: (§2) HEK293 cells were cultured in DMEM-F12 (Sigma-Aldrich). Media were supplemented with 10% heat-inactivated FBS, 100 U/ml penicillin and 100 μg/ml streptomycin (Invitrogen corporation, San Giuliano Milanese, Italy). ACN neuroblastoma cells were cultured in DMEM supplemented with MEM non-essential amino acid solution 100× (Sigma-Aldrich). HEK293 cells were transfected with the calcium phosphate method. Cells transiently expressing the pmeLUC construct were assayed 36 hours after transfection. Clones stably expressing pmeLUC or the P2X7R were generated by culture of the transfected cells in the presence of G418 (0.8 mg/ml, added 48 hours after transfection) for 3 weeks. Stable P2X7- or pmeLUC-expressing clones were kept in the continuous presence of 0.2 mg/ml of G418 sulphate (Geneticin) (Calbiochem, la Jolla, Calif.). ACN cells were transfected with pmeLUC by lipofectamine (Invitrogen) and tested 24 hours after transfection. Briefly, cells were incubated in 250 μl serum-free transfection medium (OPTIMEM) in the presence of lipofectamine-plus-DNA (0.4 μg per well). After 3 hours incubation 1 ml of DMEM plus 10% FBS supplemented with MEM non-essential amino acid solution 100× (Sigma-Aldrich) was added. Cells were assayed 24 hours after transfection. In order to allow a high level of plasma membrane expression of the transfected constructs, cells were incubated overnight in the presence of 1 mM DTT (Mezghrani et al, 2001). Furthermore, they were also kept at room temperature (21° C.) for two hours prior to transfer into the thermostated luminometer chamber.
(§3) ATP was measured in the custom-made luminometer described by Rizzuto and co-workers (Brini et al., 1999; Jouaville et al., 1999). […] Light emission was detected by a Thorn EMI photon counting board installed in an IBM-compatible computer. […] Alternatively, ATP was measured in the supernatants using soluble luciferase in a Firezyme luminometer as previously described (Baricordi et al., 1999; Solini et al, 2004; Zanovello et al., 1990).

human P2X7R = molecular target: T2, human P2X7R (Homo sapiens, UniProt Q99572); assay: ATP release through the P2X7 receptor in HEK293-hP2X7/pmeLUC cells, pmeLUC luminescence; settings: HEK293-hP2X7/pmeLUC
T2 construct: expressed in transfected cells; host or cells: HEK293 (HEK293-hP2X7/pmeLUC)
T2 sequence (Q99572 1-595): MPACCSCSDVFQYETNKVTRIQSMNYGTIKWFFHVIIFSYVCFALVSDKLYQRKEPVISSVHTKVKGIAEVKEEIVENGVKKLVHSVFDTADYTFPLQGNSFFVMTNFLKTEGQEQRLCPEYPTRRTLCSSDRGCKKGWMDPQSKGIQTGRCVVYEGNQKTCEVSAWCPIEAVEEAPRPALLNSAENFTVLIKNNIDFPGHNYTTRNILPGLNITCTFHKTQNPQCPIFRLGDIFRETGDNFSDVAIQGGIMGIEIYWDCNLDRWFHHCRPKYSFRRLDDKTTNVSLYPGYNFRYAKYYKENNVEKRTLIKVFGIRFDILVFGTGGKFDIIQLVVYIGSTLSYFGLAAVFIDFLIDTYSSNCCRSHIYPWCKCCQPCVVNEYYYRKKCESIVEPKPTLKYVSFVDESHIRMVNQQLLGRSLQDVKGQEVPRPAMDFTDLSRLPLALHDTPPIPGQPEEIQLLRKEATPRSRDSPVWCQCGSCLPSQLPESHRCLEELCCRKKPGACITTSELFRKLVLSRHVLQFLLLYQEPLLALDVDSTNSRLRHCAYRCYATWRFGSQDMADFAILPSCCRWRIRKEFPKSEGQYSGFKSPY
Description: as §2, §1
Early experiments carried out not only by the authors of the present invention had shown that supernatants from cells expressing the P2X7 receptor contained a high level of ATP, which was not due to an accelerated rate of cell lysis (Baricordi et al., 1999; Adinolfi et al., 2003; Solini et al., 2004). […] To test such hypothesis several HEK293 clones were generated stably transfected with the human or rat P2X7R (HEK293-hP2X7 or HEK293-rP2X7, respectively). These clones were then transfected with pmeLUC (HEK293-P2X7/pmeLUC).

rat P2X7R = molecular target: T3, rat P2X7R (Rattus norvegicus, UniProt Q64663); assay: ATP release through the P2X7 receptor in HEK293-rP2X7/pmeLUC cells, pmeLUC luminescence; settings: HEK293-rP2X7/pmeLUC, pre-treatment with oATP, FIG. 4A
T3 construct: expressed in transfected cells; host or cells: HEK293 (HEK293-rP2X7/pmeLUC)
T3 sequence (Q64663 1-595): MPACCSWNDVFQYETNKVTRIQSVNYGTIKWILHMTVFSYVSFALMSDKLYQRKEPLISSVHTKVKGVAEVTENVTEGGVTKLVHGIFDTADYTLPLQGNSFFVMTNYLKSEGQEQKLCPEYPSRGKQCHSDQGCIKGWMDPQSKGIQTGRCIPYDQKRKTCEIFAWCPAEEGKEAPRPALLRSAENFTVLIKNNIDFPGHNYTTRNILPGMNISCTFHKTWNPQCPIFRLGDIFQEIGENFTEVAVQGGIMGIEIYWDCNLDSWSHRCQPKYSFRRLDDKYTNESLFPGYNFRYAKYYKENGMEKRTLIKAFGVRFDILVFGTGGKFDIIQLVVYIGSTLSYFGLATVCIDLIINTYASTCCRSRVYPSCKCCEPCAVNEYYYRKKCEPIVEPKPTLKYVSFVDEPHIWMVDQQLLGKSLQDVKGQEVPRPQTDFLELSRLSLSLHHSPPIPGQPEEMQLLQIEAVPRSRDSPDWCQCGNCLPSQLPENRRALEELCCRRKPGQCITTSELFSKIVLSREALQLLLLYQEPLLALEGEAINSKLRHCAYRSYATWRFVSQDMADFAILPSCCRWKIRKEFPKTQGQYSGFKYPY
Description: as §2
as §3, with “1990). […]” for “1990).”

native P2X7R = molecular target: T4, native P2X7R (Homo sapiens, UniProt Q99572); assay: ATP release from ACN neuroblastoma cells transfected with pmeLUC; settings: ACN cells
T4 construct: the human ACN neuroblastoma, a cell line expressing the native P2X7R; endogenous in cells; host or cells: ACN human neuroblastoma cells, transiently transfected with pmeLUC as sensor
T4 sequence (Q99572 1-595): T2 sequence (Q99572 1-595)
Description: HEK293 cells were cultured in DMEM-F12 (Sigma-Aldrich). Media were supplemented with 10% heat-inactivated FBS, 100 U/ml penicillin and 100 μg/ml streptomycin (Invitrogen corporation, San Giuliano Milanese, Italy). ACN neuroblastoma cells were cultured in DMEM supplemented with MEM non-essential amino acid solution 100× (Sigma-Aldrich). HEK293 cells were transfected with the calcium phosphate method. Cells transiently expressing the pmeLUC construct were assayed 36 hours after transfection. Clones stably expressing pmeLUC or the P2X7R were generated by culture of the transfected cells in the presence of G418 (0.8 mg/ml, added 48 hours after transfection) for 3 weeks. Stable P2X7- or pmeLUC-expressing clones were kept in the continuous presence of 0.2 mg/ml of G418 sulphate (Geneticin) (Calbiochem, la Jolla, Calif.). ACN cells were transfected with pmeLUC by lipofectamine (Invitrogen) and tested 24 hours after transfection. […]
as §3
Differences in basal levels of luminescence emission are neutralized by expressing luminescence as percentage increase over basal (FIG. 3B), however, the higher basal luminescence of HEK293-hP2X7/pmeLUC might reflect a real increased level of pericellular ATP compared to HEK293-pmeLUC, rather than a higher expression of pmeLUC. In this case, reporting luminescence as percent increase over basal would mask such a difference in the extracellular ATP concentration. To clarify this issue, total pmeLUC protein was measured by western blotting (FIG. 3C). […] To measure quantitatively surface pmeLUC expression, different clones were analyzed by FACS. […]

With `O=c1ccn([C@@H]2O[C@H](COP(=O)(O)OP(=O)(O)O)[C@@H](O)[C@H]2O)c(=O)[nH]1` [UDP] the “sensitivity of pmeLUC to other nucleotides” value (pmeLUC) was “insensitive”.

With `O=c1ccn([C@@H]2O[C@H](COP(=O)(O)OP(=O)(O)OP(=O)(O)O)[C@@H](O)[C@H]2O)c(=O)[nH]1` [UTP] the “sensitivity of pmeLUC to other nucleotides” value (pmeLUC) was “insensitive”.

With `C[N+](C)(C)CCOC(N)=O` [carbachol] the “ATP release triggered by agonists of G protein-coupled receptors” value (HEK293-pmeLUC cells) was “negligible ATP release”.

For `NCCc1c[nH]cn1` [histamine], the “ATP release triggered by agonists of G protein-coupled receptors” value (HEK293-pmeLUC cells) was “negligible ATP release”.

With `Nc1ncnc2c1ncn2[C@@H](C=O)O[C@@H](C=O)COP(=O)(O)OP(=O)(O)OP(=O)(O)O` [oATP, oxidized ATP] the “effect on ATP-dependent luminescence increase (calibration curve; inhibition of luciferase itself)” value (pmeLUC; calibration curve in presence and absence of oATP, not shown) was “not affected”, the “basal luminescence after oATP pretreatment” value (human P2X7R; n=8, untreated 12250±1500 cps) was 5800±1300 cps and the “ATP-induced luminescence increase in oATP-treated cells” value (human P2X7R; pre-treatment with oATP, FIG. 4B) was “matches exactly that of HEK293-pmeLUC”. For the same molecule, the “block of the BzATP-triggered luminescence increase” value (human P2X7R; pre-treatment with 300 μM oATP for 2 hours) was “fully blocked”, the “ATP-induced luminescence increase in oATP-treated cells” value (rat P2X7R) was “matches exactly that of HEK293-pmeLUC” and the “block of BzATP-induced ATP release” value (native P2X7R; 300 μM oATP) was “fully blocked”. The “basal luminescence total level after treatment with oATP” value (native P2X7R; n=5, before treatment 3500±350 cps) was 1500±260 cps.
